The experiment concerns the target human A2A receptor (A2AR) (Homo sapiens (Human), UniProt P29274). Briefly: Luciferase reporter assay (HEK293-A2AR-luc2p/CRE/Hygro cells). Format: cell-based. As to conditions: 3 nM CGS21680, 5 h incubation. As for the experimental part: HEK293 cells were maintained in Dulbecco's modified Eagle's medium (DMEM, Gibco) supplemented with 10% fetal bovine serum (FBS, Thermo Scientific), 100 units/mL penicillin (Gibco), and 0.1 mg/mL streptomycin (Gibco) in a humidified 37° C. environment with 5% CO2. Plasmid encoding wild-type human A2A receptor (A2AR) (in pcDNA3.1) was synthesized by Genscript (Nanjing, China). Transfection of the plasmids was performed in 6-well plates with 4×10^5 cells using Lipofectamin 2000 (ThermoFisher Scientific) according to the instruction of the manufacturer. Cell clones that stably express A2AR were established and maintained in the same complete medium as the HEK293 cells in addition of G-418 (Gibico). Expression level of A2AR in each single cell clone was determined using immunoblotting and FACS method. HEK293-A2AR stable cells were then transfected with pGL4.29[luc2P/CRE/Hygro] (Promega) luciferase reporter plasmid for establishing the HEK293-A2AR-luc2p/CRE/Hygro stable cell line.
HEK293-A2AR-luc2p/CRE/Hygro cells were seeded at a density of 5,000 cells/well in DMEM with 1% FBS and 1 U/mL adenosine deaminase (ADA) (Sigma). After 18 h, the cells were treated with 3 nM CGS21680 plus a series dilution of A2AR antagonist, the compounds disclosed herein at the concentration of 0.1˜10000 nM, prepared in DMEM with 1% FBS. After 5 h incubation, the luciferase activity in cells were measured using the Bright-Glo Luciferase Assay System (Promega) according to manufacturer's instructions. The luminescence signal was measured using a PHERAstar FS plate reader (BMG Labtech). […] Maximal luminescence intensity was determined in the presence of 3 nM CGS21680 and was set as 100%. The IC50 value was calculated from a dose dependent inhibition curve across the range of compound concentrations.
For orientation: In a reporter assay the amount or activity of a reporter protein is the signal.

Each structure is given as a SMILES string.

Chain of human A2A receptor (A2AR) (P29274 whole entry): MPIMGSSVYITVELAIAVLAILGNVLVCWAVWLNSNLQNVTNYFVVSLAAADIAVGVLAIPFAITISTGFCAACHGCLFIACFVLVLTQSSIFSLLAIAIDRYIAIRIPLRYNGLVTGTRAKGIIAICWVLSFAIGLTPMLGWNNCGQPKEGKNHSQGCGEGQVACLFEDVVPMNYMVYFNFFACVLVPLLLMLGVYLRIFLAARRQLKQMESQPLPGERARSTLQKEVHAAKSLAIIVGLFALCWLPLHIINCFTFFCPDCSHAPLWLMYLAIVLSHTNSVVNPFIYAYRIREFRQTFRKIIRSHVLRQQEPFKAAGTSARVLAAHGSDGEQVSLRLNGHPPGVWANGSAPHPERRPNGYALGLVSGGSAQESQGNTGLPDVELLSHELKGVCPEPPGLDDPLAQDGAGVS

The molecule `CC(C(=O)N[C@H]1CCCC[C@@H]1O)(c1ccccc1)n1ncc2c1nc(N)n1nc(-c3ccco3)nc21` (stereo partly drawn) [Example 57, 2-(5-amino-2-(furan-2-yl)-7H-pyrazolo[4,3-e][1,2,4]triazolo[1,5-c]pyrimidin-7-yl)-N-((1S,2S)-2-hydroxycyclohexyl)-2-phenylpropanamide] had an IC50 of 29 nM.

The molecule `C[C@](C(=O)NCc1ncccc1C(F)(F)F)(c1ccccc1)n1ncc2c1nc(N)n1nc(-c3ccco3)nc21` [Example 141B, (R)-2-(5-amino-2-(furan-2-yl)-7H-pyrazolo[4,3-e][1,2,4]triazolo[1,5-c]pyrimidin-7-yl)-2-phenyl-N-((3-(trifluoromethyl)pyridin-2-yl)methyl)propanamide] displayed an IC50 of 1.1 nM. Turning to `CC(C(=O)N[C@H]1CC[C@H](O)C1)(c1ccccc1)n1ncc2c1nc(N)n1nc(-c3ccco3)nc21` (stereo partly drawn) [Example 95, 2-(5-amino-2-(furan-2-yl)-7H-pyrazolo[4,3-e][1,2,4]triazolo[1,5-c]pyrimidin-7-yl)-N-((1S,3S)-3-hydroxycyclopentyl)-2-phenylpropanamide], the half-inhibitory concentration (IC50) came out at 9.5 nM.

For the molecule `COCCNC(=O)C(C)(c1ccccc1)n1ncc2c1nc(N)n1nc(-c3ccco3)nc21` (stereo not shown) [Example 39, 2-(5-amino-2-(furan-2-yl)-7H-pyrazolo[4,3-e][1,2,4]triazolo[1,5-c]pyrimidin-7-yl)-N-(2-methoxyethyl)-2-phenylpropanamide], the IC50 came out at 7.6 nM.

On to `CC(C(=O)NCCN1CCNCC1)(c1ccccc1)n1ncc2c1nc(N)n1nc(-c3ccco3)nc21` (stereo not shown) [Example 45, 2-(5-amino-2-(furan-2-yl)-7H-pyrazolo[4,3-e][1,2,4]triazolo[1,5-c]pyrimidin-7-yl)-2-phenyl-N-(2-(piperazin-1-yl)ethyl)propanamide], for which the IC50 came out at 22.4 nM. Then `CC(C(=O)NCc1ccncc1)(c1ccccc1)n1ncc2c1nc(N)n1nc(-c3ccco3)nc21` (stereo not shown) [Example 83, 2-(5-amino-2-(furan-2-yl)-7H-pyrazolo[4,3-e][1,2,4]triazolo[1,5-c]pyrimidin-7-yl)-2-phenyl-N-(pyridin-4-ylmethyl)propenamide], with 11.2 nM; and `CC1(O)CCC(NC(=O)[C@](C)(c2ccccc2)n2ncc3c2nc(N)n2nc(-c4ccco4)nc32)CC1` (stereo in doubt) [Example 33A, (S)-2-(5-amino-2-(furan-2-yl)-7H-pyrazolo[4,3-e][1,2,4]triazolo[1,5-c]pyrimidin-7-yl)-(trans)-N-(4-hydroxy-4-methylcyclohexyl)-2-phenylpropanamide], with 13.2 nM; and `C[C@](C(=O)NCc1cccc(C(F)(F)F)n1)(c1ccccc1)n1ncc2c1nc(N)n1nc(-c3ccco3)nc21` [Example 144B, (R)-2-(5-amino-2-(furan-2-yl)-7H-pyrazolo[4,3-e][1,2,4]triazolo[1,5-c]pyrimidin-7-yl)-2-phenyl-N-((6-(trifluoromethyl)pyridin-2-yl)methyl)propanamide], with 2.1 nM. As to `CN1CCN(CCNC(=O)[C@@](C)(c2ccccc2)n2ncc3c2nc(N)n2nc(-c4ccco4)nc32)CC1` [Example 147B, (R)-2-(5-amino-2-(furan-2-yl)-7H-pyrazolo[4,3-e][1,2,4]triazolo[1,5-c]pyrimidin-7-yl)-N-(2-(4-methylpiperazin-1-yl)ethyl)-2-phenylpropanamide], it took 18.9 nM to reach half-maximal inhibition (IC50). With `Nc1nc2c(cnn2C(C(=O)NC2COc3ccccc32)c2ccccc2)c2nc(-c3ccco3)nn12` (stereo not shown) [Example 20, 2-(5-amino-2-(furan-2-yl)-7H-pyrazolo[4,3-e][1,2,4]triazolo[1,5-c]pyrimidin-7-yl)-N-(2,3-dihydrobenzofuran-3-yl)-2-phenylacetamide] the figure was 14.6 nM; with `CC(C(=O)N[C@H]1CCCNC1)(c1ccccc1)n1ncc2c1nc(N)n1nc(-c3ccco3)nc21` (stereo partly drawn) [Example 68, 2-(5-amino-2-(furan-2-yl)-7H-pyrazolo[4,3-e][1,2,4]triazolo[1,5-c]pyrimidin-7-yl)-2-phenyl-N—((S)-piperidin-3-yl)propanamide], 72.1 nM; with `Cc1cccnc1CNC(=O)C(C)(c1ccccc1)n1ncc2c1nc(N)n1nc(-c3ccco3)nc21` (stereo not shown) [Example 111, 2-(5-amino-2-(furan-2-yl)-7H-pyrazolo[4,3-e][1,2,4]triazolo[1,5-c]pyrimidin-7-yl)-N-((3-methylpyridin-2-yl)methyl)-2-phenylpropanamide], 0.6 nM.

`Nc1nc2c(cnn2C(C(=O)NCc2ccc(OC(F)(F)F)cc2)c2ccccc2)c2nc(-c3ccco3)nn12` (stereo not shown) [Example 24, 2-(5-amino-2-(furan-2-yl)-7H-pyrazolo[4,3-e][1,2,4]triazolo[1,5-c]pyrimidin-7-yl)-2-phenyl-N-(4-(trifluoromethoxy)benzyl)acetamide]: inhibition was half-maximal at 5.6 nM (IC50). For `CC(C(=O)NC1(CO)CC1)(c1ccccc1)n1ncc2c1nc(N)n1nc(-c3ccco3)nc21` (stereo not shown) [Example 37, 2-(5-amino-2-(furan-2-yl)-7H-pyrazolo[4,3-e][1,2,4]triazolo[1,5-c]pyrimidin-7-yl)-N-(1-(hydroxymethyl)cyclopropyl)-2-phenylpropanamide], the concentration for half-maximal inhibition (IC50) worked out at 500 nM. Then `CC(C(=O)NC1CCCCC1)(c1ccccc1)n1ncc2c1nc(N)n1nc(-c3ccco3)nc21` (stereo not shown) [Example 43, 2-(5-amino-2-(furan-2-yl)-7H-pyrazolo[4,3-e][1,2,4]triazolo[1,5-c]pyrimidin-7-yl)-N-cyclohexyl-2-phenylpropanamide], with 4.1 nM; and `CC(C(=O)N[C@H]1C[C@H](O)C1)(c1ccccc1)n1ncc2c1nc(N)n1nc(-c3ccco3)nc21` (relative stereo) [Example 102, 2-(5-amino-2-(furan-2-yl)-7H-pyrazolo[4,3-e][1,2,4]triazolo[1,5-c]pyrimidin-7-yl)-(trans)-N-(3-hydroxycyclobutyl)-2-phenylpropanamide], with 13.3 nM; and `CC(C(=O)N[C@@H]1CCCNC1)(c1ccccc1)n1ncc2c1nc(N)n1nc(-c3ccco3)nc21` (stereo partly drawn) [Example 67, 2-(5-amino-2-(furan-2-yl)-7H-pyrazolo[4,3-e][1,2,4]triazolo[1,5-c]pyrimidin-7-yl)-2-phenyl-N—((R)-piperidin-3-yl)propanamide], with 75.5 nM. `COc1ccccc1C(C)(C(=O)N[C@H]1CC[C@](C)(O)CC1)n1ncc2c1nc(N)n1nc(-c3ccco3)nc21` (stereo partly drawn) [Example 140, 2-(5-amino-2-(furan-2-yl)-7H-pyrazolo[4,3-e][1,2,4]triazolo[1,5-c]pyrimidin-7-yl)-N-((cis)-4-hydroxy-4-methylcyclohexyl)-2-(2-methoxyphenyl)propanamide] returned an IC50 of 1.2 nM. Then `COCCOc1ccc(N2CCN(CCNC(=O)C(C)(c3ccccc3)n3ncc4c3nc(N)n3nc(-c5ccco5)nc43)CC2)cc1` (stereo not shown) [Example 44, 2-(5-amino-2-(furan-2-yl)-7H-pyrazolo[4,3-e][1,2,4]triazolo[1,5-c]pyrimidin-7-yl)-N-(2-(4-(4-(2-methoxyethoxy)phenyl)piperazin-1-yl)ethyl)-2-phenylpropanamide], with 22.5 nM; and `CC1(O)CC(NC(=O)[C@@](C)(c2ccccc2)n2ncc3c2nc(N)n2nc(-c4ccco4)nc32)C1` (stereo in doubt) [Example 105B, (R)-2-(5-amino-2-(furan-2-yl)-7H-pyrazolo[4,3-e][1,2,4]triazolo[1,5-c]pyrimidin-7-yl)-(cis)-N-(3-hydroxy-3-methylcyclobutyl)-2-phenylpropanamide], with 5 nM. Take `Cc1cccc(CNC(=O)[C@@](C)(c2ccccc2)n2ncc3c2nc(N)n2nc(-c4ccco4)nc32)n1` [Example 108B, (R)-2-(5-amino-2-(furan-2-yl)-7H-pyrazolo[4,3-e][1,2,4]triazolo[1,5-c]pyrimidin-7-yl)-N-((6-methylpyridin-2-yl)methyl)-2-phenylpropanamide]: the IC50 was 2.5 nM. With `Nc1nc2c(cnn2C(C(=O)NCc2ccccc2)c2ccccc2)c2nc(-c3ccco3)nn12` (stereo not shown) [Example 1, 2-(5-amino-2-(furan-2-yl)-7H-pyrazolo[4,3-e][1,2,4]triazolo[1,5-c]pyrimidin-7-yl)-N-benzyl-2-phenylacetamide] the figure was 1.4 nM; with `COc1ccccc1CNC(=O)C(CC(C)C)n1ncc2c1nc(N)n1nc(-c3ccco3)nc21` (stereo not shown) [Example 27, 2-(5-amino-2-(furan-2-yl)-7H-pyrazolo[4,3-e][1,2,4]triazolo[1,5-c]pyrimidin-7-yl)-N-(2-methoxybenzyl)-4-methylpentanamide], 16.1 nM. Molecule `COCCOCCNC(=O)C(C)(c1ccccc1)n1ncc2c1nc(N)n1nc(-c3ccco3)nc21` (stereo not shown) [Example 75, 2-(5-amino-2-(furan-2-yl)-7H-pyrazolo[4,3-e][1,2,4]triazolo[1,5-c]pyrimidin-7-yl)-N-(2-(2-methoxyethoxy)ethyl)-2-phenylpropanamide] had a half-inhibitory concentration (IC50) of 16.9 nM.

`Nc1nc2c(cnn2C(C(=O)NC2CCCC2)c2ccccc2)c2nc(-c3ccco3)nn12` (stereo not shown) [Example 12, 2-(5-amino-2-(furan-2-yl)-7H-pyrazolo[4,3-e][1,2,4]triazolo[1,5-c]pyrimidin-7-yl)-N-cyclopentyl-2-phenylacetamide] returned a concentration for half-maximal inhibition (IC50) of 10.2 nM.

A word on the IC50: it is the concentration that inhibits the measured activity by half. Low values mean inhibition by little substance, high ones a need for much substance.

Values taken from patent US11472811B2, “Pyrazolotriazolopyrimidine derivatives as A2A receptor antagonist” (BEIGENE, LTD., priority 2018, dated 2022).
